# Entries after “also recorded” stand apart in the source; their conditions may differ.
# Tests used:
# Type in all cases: cell-based
# [1] = tested on: Gardnerella vaginalis; test: Gardnerella vaginalis optical density with sugars and sugar derivatives (Example 15); details: 24 hours; 1.0% (wt/vol), FIG. 12
# Description: A growth medium for Gardnerella vaginalis was prepared according to the manufacturer's instructions, and the pH of this medium was adjusted to pH 6.0 using 1 N HCl. D-ribose (99%, Calbiochem), D-arabinose (98%, Alfa Aesar), D-xylose (Aldrich), D-lyxose (99%, Avovado), D-arabitol (97%, Alfa Aesar), adonitol (99%, Alfa Aesar), xylitol (99%, Alfa Aesar), xylitol (98%, Danisco), and xylitol (98%, Aldrich) were then dissolved into the growth medium at a concentration of 1.0% (wt/vol). 0.9 milliliters of the culture medium was also added into a different culture tube as a control. Thereafter, 0.1 milliliter of Gardnerella vaginalis culture suspension (concentration of 1×10^6/milliliter) was added to each of the culture tubes, and then incubated overnight at 37° C., and the optical density was then measured after 24 hours at a wavelength of 595 nanometers. This was accomplished by pipetting 100 microliters of the control or sample solutions into 96-well microplates, and then using a ThermoMax Microplate Reader from Molecular Devices of Sunnyvale, Calif. to obtain the optical density readings. The results are depicted in FIG. 12.
# [2] = tested on: Lactobacillus acidophilus; test: Optical density growth test, Lactobacillus acidophilus (Example 9); details: 2, 4, 6 and 24 hours, FIG. 7
# Description: (§1) Test compounds were dissolved in culture media to form a suspension. Control or xylitol solutions (0.9 milliliters) were filtered and added into culture tubes, and to this was added 0.1 milliliter of either the Gardnerella vaginalis or Lactobacillus acidophilus suspension at a concentration of around 10^6 cfu/milliliter. The culture tubes were then incubated overnight at 37° C., whereafter the optical density was measured at 2, 4, 6 and 24 hours by pipetting 100 microliters of the control or sample solutions into 96-well microplates, and then using a ThermoMax Microplate Reader (Molecular Devices of Sunnyvale, Calif.) to obtain the optical density readings at 590 or 600 nm wavelengths. […] The inhibition effect remained evident throughout the 24-hour experimental period.
# [3] = tested on: Gardnerella vaginalis; test: Zone of inhibition on agar plates, Gardnerella vaginalis (Examples 8, 11)
# Description: (§2) A microorganism culture of 10^5 cfu (colony forming units)/ml in a 1× phosphate buffered saline (PBS) solution (diluted from 10×PBS LIQUID CONCENTRATE from VWR Cat. No. EM-6507] was used. One milliliter of the solution was plated on proper agar plates, depending on which microorganism was being tested. The agar plates were incubated at 35° C. for 4 hours. Three 4-millimeter diameter wells were then punched in each agar plate. A test sample of 100 microliters of 5% xylitol in sterilized 2-N-morpholino ethane sulfonic buffer (0.1 M 2-[morpholino]-ethanesulfonic acid, 0.9% NaCl, pH 4.7, prepared from BupH™ MES Buffer Saline Pack from Cat. No. 28390, Pierce Biotechnology, Inc., Rockford, Ill.) was added to one well of each plate. Into each of the other two wells were added MES buffer and 1% benzyl quats (diluted from BARDAC.® 205M, from Lonza Inc., Fair Lawn, N.J.) as negative and positive controls, respectively. The plates were incubated overnight at 35° C.
# (§3) The following day, the “zone of inhibition” for each sample was then measured for Gardnerella vaginalis and Lactobacillus acidophilus activity. The “zone of inhibition” is a circular zone formed around the agar plate in which the growth of the microorganism is inhibited. […] However, when growth is inhibited, a clear zone is observed. The diameter of this clear zone may thus be used as an indicator of antimicrobial effectiveness.
# (§4) Sorbitol, glucose, and xylitol were tested as described in Example 8.
# [4] = tested on: Gardnerella vaginalis; test: Plate count after 6 hours treatment, Gardnerella vaginalis (Example 10); details: all five concentrations, 1-5%
# Description: (§5) Test compounds were dissolved in culture media to form a suspension. Control or xylitol solutions (0.9 milliliters) were filtered and added into culture tubes. To these solutions, 0.1 milliliter of the Gardnerella vaginalis or Lactobacillus acidophilus suspension was then added at a concentration of around 10^6 cfu/milliliter. The culture tubes were incubated at 37° C. for 6 hours. The samples in the culture tubes were then diluted at 1, 10 and 100 times, and 100 microliters of each dilution was plated onto agar plates with WASP (Whitely Automatic Spiral Plate) spiral plating equipment from Don Whitely Scientific Limited, USA. The plates were incubated overnight at 35° C., and the numbers of colonies were counted on each plate by either ProtoCol® from Synbiosis, Frederick, Md., USA Whitely Scientific Limited, USA or by hand count. The results are shown below in Tables 7-8 and in FIG. 6.
# [5] = tested on: Trichomonas vaginalis; test: Viable Trichomonas vaginalis cell count with xylitol (Example 12)
# Description: Trichomonas vaginalis was obtained from the American Type Culture Collection (ATCC #30001). The culture medium was LYI-S-2 medium (ATCC medium 2154).
# A sterile LYI-S-2 medium was prepared according to the manufacturer's instructions, and the pH of this medium was adjusted to pH 6.0 using 1 N HCl. Xylitol was then dissolved into the LYI-S-2 medium at concentrations of 0.5%, 3.0%, and 5.0% (wt/vol). 0.9 milliliters of xylitol and culture medium (as control) were also added into different culture tubes. Thereafter, 0.1 milliliter of Trichomonas vaginalis culture suspension (concentration of 1×10^6/milliliter) was added to each of the culture tubes, and then incubated at 35° C. on a 15 degree horizontal slant. The viable Trichomonas vaginalis cells in each tube were counted under a microscope after 24 and 48 hours. The above procedure was repeated four times for each concentration of xylitol and the control.
# [6] = tested on: Lactobacillus acidophilus; test: Zone of inhibition on agar plates, Lactobacillus acidophilus (Examples 8, 11)
# Description: as §2, §3, §4
# [7] = tested on: Lactobacillus acidophilus; test: Plate count after 6 hours treatment, Lactobacillus acidophilus (Example 10); details: 1% and 5% xylitol
# Description: as §5
# [8] = tested on: Gardnerella vaginalis; test: Gardnerella vaginalis plate count after treatment with gel compositions (Example 6)
# Description: Gardnerella vaginalis was obtained from the American Type Culture Collection (ATCC #14018). The culture medium was Casman's medium base (BD 229010) with 5% rabbit blood (ATCC medium 70).
# Initially, eight (8) solutions were formed as set forth below in Table 4.
# Samples 1-2 were prepared by dissolving the KELCOGEL® (0.07 grams) and/or xylitol (0.44 grams) into 10 milliliters of water heated to between 70° C. to 80° C. Samples 3-4 and 6 were formed by first autoclaving a gallic acid stock solution (0.75 grams of gallic acid/20 mL water), autoclaving, and then adding 200 microliters of sterile gallic acid (0.0075 grams) to each sterile solution. Sample 5 was formed by dissolving 0.44 grams of xylitol in deionized water, followed by autoclaving. Sample 7 was formed by dissolving 0.44 grams of xylitol in sterilized growth medium for Gardnerella vaginalis and then filtering. The amount of xylitol was selected to yield isotonic solutions. […]
# Upon formation, 1 milliliter of each control or sample solution was then added into a culture tube, followed by the addition of 0.8 milliliters of growth medium for Gardnerella vaginalis. […] After 24 and 48 hours, the optical density was measured for each sample at wavelengths of 450 and 595 nanometers. […] The number of colonies on each plate was counted using ProtoCol® software from Synbiosis of Frederick, Md. […]
# [9] = tested on: Gardnerella vaginalis; test: Optical density growth test, Gardnerella vaginalis (Example 9); details: 2, 4, 6 and 24 hours, FIG. 5
# Description: as §1
# [10] = tested on: Candida albicans; test: Candida albicans viable cell count with xylitol (Example 14); details: 24 hours; 1%, 2%, 3%, 4%, and 5.0% (wt/vol), FIG. 11
# Description: A YM culture medium was prepared according to the manufacturer's instructions, and the pH of this medium was adjusted to pH 6.0 using 1 N HCl. Xylitol was then dissolved into the YM medium at concentrations of 1%, 2%, 3%, 4%, and 5.0% (wt/vol). 0.9 milliliters of the culture medium were also added into a different culture tube as a control. Thereafter, 0.1 milliliter of Candida albicans culture suspension (concentration of 1×10^6/milliliter) was added to each of the culture tubes, and then incubated at 37° C. The viable Candida albicans cells in each tube were counted under a microscope after 24 hours. The above procedure was repeated four times for each concentration and the control.
# [11] = 5% in MES buffer pH 4.7, 100 microliters per well
# [12] = zone of inhibition testing, concentrations as in Tables 6 and 9
Structure (SMILES),Gardnerella vaginalis cell count versus control (optical density 595 nanometers) [1],Inhibition of Lactobacillus acidophilus growth (optical density) [2],"Zone of inhibition, Gardnerella vaginalis [3, 11]","Zone of inhibition, Gardnerella vaginalis ([3]; 10%)","Effect on Gardnerella vaginalis [3, 12]",Inhibition of Gardnerella vaginalis growth compared to control [4],"Trichomonas vaginalis cell count versus control ([5]; 24 hours, 0.5%, 3.0%, and 5.0% (wt/vol), FIG. 8)","Trichomonas vaginalis cell count versus control ([5]; 48 hours, FIG. 9)","Live Trichomonas vaginalis cells ([5]; 48 hours, 3% and 5% xylitol)","Zone of inhibition, Lactobacillus acidophilus [6, 11]","Zone of inhibition, Lactobacillus acidophilus ([6]; 10%)","Effect on Lactobacillus acidophilus [6, 12]",Inhibition of Lactobacillus acidophilus growth [7],"Average Plate Count ([8]; 24-hr samples, 4.4 wt/vol % xylitol in growth medium)",Effect on Gardnerella vaginalis growth ([8]; Example 6),Inhibition of Gardnerella vaginalis growth (optical density) [9],Candida albicans cell count versus control [10]
O=C[C@H](O)[C@H](O)[C@H](O)CO [D-ribose],significantly reduced,,,,,,,,,,,,,,,,
OC[C@@H](O)[C@H](O)[C@@H](O)CO [xylitol],significantly reduced,did not exhibit any significant inhibition,4 mm,4 mm,inhibited; also recorded: inhibitory effect,significant inhibition,significantly reduced,even more significant inhibitory effect,No live Trichomonas vaginalis cells were observed,0 mm,0 mm,did not affect the growth,did not exhibit any significant inhibition,2.40 × 10^4,significant inhibition,significant inhibition,significantly reduced

# — US7786176B2, “Vaginal treatment composition containing xylitol” (Kimberly-Clark Worldwide, Inc., priority 2005, dated 2010)
